Source: US11866431B2, “Bicyclic compounds” (Vivace Therapeutics, Inc., priority 2018, dated 2024)

What follows are molecules tested on 8XTBD luciferase reporter (YAP reporter) in HEK293T cells (assay: YAP Reporter Assay). Conditions: Homo sapiens, HEK-293T; HEK293T cells stably transfected with 8XTBD luciferase reporter and pRLTK; 24-hr incubation; top concentration 3 μM; read-out: Firefly Luciferase IC50.
Format: cell-based
Procedure, shortened: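 Dual-luciferase read-out after 24 h compound exposure at 37° C, 5% CO2; IC50 and maximum inhibition given separately for 8XTBD-firefly and TK-renilla signals. Stable HEK293T reporter cells, 3×10^3/well, received 10-point 1:3 series starting 3 μM final, in quadruplicate.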
With `C[C@H](NC(=O)c1ccc2c(-c3ccc(C(F)(F)F)cc3)cccc2c1)c1c[nH]cn1` [Compound 276, (S)—N-(1-(1H-imidazol-4-yl)ethyl)-5-(4-(trifluoromethyl)phenyl)-2-naphthamide] the IC50 was 0.1 to 1 µM. `CC(=O)Nc1cccc(CNC(=O)c2ccc3c(-c4ccc(C(F)(F)F)cc4)cccc3c2)c1` [Compound 237, N-(3-acetamidobenzyl)-5-(4-(trifluoromethyl)phenyl)-2-naphthamide] was tested, and the IC50 was < 0.1 µM. With `CCOc1cc(-c2ccc(C(F)(F)F)cc2)c2ncc(C(=O)O)cc2c1` [Compound 327, 6-ethoxy-8-(4-(trifluoromethyl)phenyl)quinoline-3-carboxylic Acid] the IC50 was < 0.1 µM. `CC(=O)Nc1ccc(-c2ccc(C(F)(F)F)cc2)c2ccc(C(=O)NC(C)C)cc12` [Compound 17, 8-acetamido-N-isopropyl-5-(4-(trifluoromethyl)phenyl)-2-naphthamide] was tested, and the IC50 was < 0.1 µM. With `O=C(NCc1ccnc(COc2ccon2)n1)c1ccc2c(-c3ccc(C(F)(F)F)cc3)cccc2c1` [Compound 171, N-((2-((Isoxazol-3-yloxy)methyl)pyrimidin-4-yl)methyl)-5-(4-(trifluoromethyl)phenyl)-2-naphthamide] the IC50 was 0.1 to 1 µM. With `CC(C)NC(=O)c1ccc2c(-c3ccc(C(F)(F)F)cc3)ccnc2c1` [Compound 7, N-isopropyl-4-[4-(trifluoromethyl)phenyl]quinoline-7-carboxamide] the IC50 was 0.1 to 1 µM. For `C[C@H](CO)NC(=O)c1ccc2c(-c3ccc(C(F)(F)F)cc3)cccc2c1` [Compound 85, (R)—N-(1-hydroxypropan-2-yl)-5-(4-(trifluoromethyl)phenyl)-2-naphthamide], the IC50 was < 0.1 µM. For `CC(C)NC(=O)c1ccc2c(-c3ccc(C(F)(F)F)cc3)ccc(S(C)(=O)=O)c2c1` [Compound 28, N-isopropyl-8-methylsulfonyl-5-[4-(trifluoromethyl)phenyl]naphthalene-2-carboxamide], the IC50 was 1 to 3 µM. `[N-]=[N+]=NCCCNC(=O)c1ccc2c(-c3ccc(C(F)(F)F)cc3)cccc2c1` [Compound 256, N-(3-azidopropyl)-5-(4-(trifluoromethyl)phenyl)-2-naphthamide] gave an IC50 of 0.1 to 1 µM. Work on `CNCCNC(=O)c1ccc2c(-c3ccc(C(F)(F)F)cc3)cccc2c1` [Compound 124, N-(2-(methylamino)ethyl)-5-(4-(trifluoromethyl)phenyl)-2-naphthamide] yielded an IC50 of 0.1 to 1 µM. Work on `C[C@H](NC(=O)c1ccc2c(-c3ccc(C(F)(F)F)cc3)cccc2c1)c1cc(N)ccn1` [Compound 214, (S)—N-(1-(4-aminopyridin-2-yl)ethyl)-5-(4-(trifluoromethyl)phenyl)-2-naphthamide] yielded an IC50 of 1 to 3 µM. With `COc1cc(-c2ccc(C(F)(F)F)cc2)c2ccc(C(=O)O)cc2c1` [Compound 322, 7-methoxy-5-(4-(trifluoromethyl)phenyl)-2-naphthoic Acid] the IC50 was < 0.1 µM. `COC(=O)c1ccc2c(-c3ccc(C(F)(F)F)cc3)cnc(Cl)c2c1` [Compound 10, Methyl 1-chloro-4-[4-(trifluoromethyl)phenyl]isoquinoline-7-carboxylate] gave an IC50 of 1 to 3 µM. With `C#CCNC(=O)c1ccc2c(-c3ccc(C(F)(F)F)cc3)cccc2c1` [Compound 111, N-(prop-2-yn-1-yl)-5-(4-(trifluoromethyl)phenyl)-2-naphthamide] the IC50 was < 0.1 µM. Molecule `C[C@H](CCN)NC(=O)c1ccc2c(-c3ccc(C(F)(F)F)cc3)cccc2c1` [Compound 169, (R)—N-(4-aminobutan-2-yl)-5-(4-(trifluoromethyl)phenyl)-2-naphthamide] has an IC50 of 0.1 to 1 µM. `C[C@@H](CCN)NC(=O)c1ccc2c(-c3ccc(C(F)(F)F)cc3)cccc2c1` [Compound 168, (S)—N-(4-aminobutan-2-yl)-5-(4-(trifluoromethyl)phenyl)-2-naphthamide] was tested, and the IC50 was < 0.1 µM. For `C[C@H](NC(=O)c1ccc2c(-c3ccc(C(F)(F)F)cc3)cccc2c1)c1cccc2ccc(=O)[nH]c12` [Compound 178, N-[(1S)-1-(2-oxo-1H-quinolin-8-yl)ethyl]-5-[4-(trifluoromethyl)phenyl]naphthalene-2-carboxamide], the IC50 was 1 to 3 µM. For `CC(C)NC(=O)c1ccc2c(-c3ccc(C(F)(F)F)cc3)cc(C3CC3)cc2c1` [Compound 43, 7-cyclopropyl-N-isopropyl-5-[4-(trifluoromethyl)phenyl]naphthalene-2-carboxamide], the IC50 was < 0.1 µM. With `CC(C)NC(=O)c1ccc2c(-c3ccc(C(F)(F)F)cc3)cc(N)cc2c1` [Compound 44, 7-amino-N-isopropyl-5-[4-(trifluoromethyl)phenyl]naphthalene-2-carboxamide] the IC50 was < 0.1 µM. Molecule `C[C@@H](NC(=O)c1ccc2c(-c3ccc(C(F)(F)F)cc3)cccc2c1)c1ncc[nH]1` [Compound 242, (R)—N-(1-(1H-imidazol-2-yl)ethyl)-5-(4-(trifluoromethyl)phenyl)-2-naphthamide] has an IC50 of 0.1 to 1 µM. In the case of `CC(C)NC(=O)c1ccc2c(-c3ccc(C(F)(F)F)cc3)cc(Cl)c(N)c2c1` [Compound 33, 8-amino-7-chloro-N-isopropyl-5-(4-(trifluoromethyl)phenyl)-2-naphthamide], the IC50 is reported as < 0.1 µM. With `O=C(NC1CC1)c1ccc2c(-c3ccc(C(F)(F)F)cc3)cccc2c1` [Compound 55, N-cyclopropyl-5-(4-(trifluoromethyl)phenyl)-2-naphthamide] the IC50 was < 0.1 µM. For `O=C(NCCCCl)c1ccc2c(-c3ccc(C(F)(F)F)cc3)cccc2c1` [Compound 265, N-(3-chloropropyl)-5-(4-(trifluoromethyl)phenyl)-2-naphthamide], the IC50 was 0.1 to 1 µM. For `C[C@@H](CN)NC(=O)c1ccc2c(-c3ccc(C(F)(F)F)cc3)cccc2c1` [Compound 59, (S)—N-(1-aminopropan-2-yl)-5-(4-(trifluoromethyl)phenyl)-2-naphthamide], the IC50 was 0.1 to 1 µM. With `COc1cc(-c2ccc(C(F)(F)F)cc2)c2ncc(C(=O)NC(CO)c3ccccn3)cc2c1` (centres unmarked) [Compound 105, N-[2-hydroxy-1-(2-pyridyl)ethyl]-6-methoxy-8-[4-(trifluoromethyl)phenyl]quinoline-3-carboxamide] the IC50 was < 0.1 µM. For `Cc1ccc(-c2ccc(C(F)(F)F)cc2)c2ccc(C(=O)NC(C)C)cc12` [Compound 19, N-isopropyl-8-methyl-5-[4-(trifluoromethyl)phenyl]naphthalene-2-carboxamide], the IC50 was < 0.1 µM. For `CC#C[C@@H](C)NC(=O)c1ccc2c(-c3ccc(C(F)(F)F)cc3)cccc2c1` [Compound 273, (R)—N-(pent-3-yn-2-yl)-5-(4-(trifluoromethyl)phenyl)-2-naphthamide], the IC50 was < 0.1 µM. `C[C@@H](NC(=O)c1ccc2c(-c3ccc(C(F)(F)F)cc3)cccc2c1)c1cc(N)ccn1` [Compound 213, (R)—N-(1-(4-aminopyridin-2-yl)ethyl)-5-(4-(trifluoromethyl)phenyl)-2-naphthamide] gave an IC50 of 0.1 to 1 µM. `CCOc1cc(-c2ccc(C(F)(F)F)cc2)c2ncc(C(=O)NS(C)(=O)=O)cc2c1` [Compound 81, 6-ethoxy-N-(methylsulfonyl)-8-(4-(trifluoromethyl)phenyl)quinoline-3-carboxamide] was tested, and the IC50 was 0.1 to 1 µM. With `O=C(NC(CO)CO)c1ccc2c(-c3ccc(C(F)(F)F)cc3)cccc2c1` [Compound 56, N-(1,3-dihydroxypropan-2-yl)-5-(4-(trifluoromethyl)phenyl)-2-naphthamide] the IC50 was < 0.1 µM. In the case of `C[C@H](NC(=O)c1ccc2c(-c3ccc(C(F)(F)F)cc3)cccc2c1)c1ncc[nH]1` [Compound 243, (S)—N-(1-(1H-imidazol-2-yl)ethyl)-5-(4-(trifluoromethyl)phenyl)-2-naphthamide], the IC50 is reported as 0.1 to 1 µM. With `O=C(NCc1ccnc(F)c1)c1ccc2c(-c3ccc(C(F)(F)F)cc3)cccc2c1` [Compound 211, N-((2-fluoropyridin-4-yl)methyl)-5-(4-(trifluoromethyl)phenyl)-2-naphthamide] the IC50 was < 0.1 µM. `C[C@H](CO)NC(=O)c1ccc2c(-c3ccc(C(F)(F)F)cc3)cccc2n1` [Compound 247, (R)—N-(1-Hydroxypropan-2-yl)-5-(4-(trifluoromethyl)phenyl)quinoline-2-carboxamide] showed an IC50 of 0.1 to 1 µM. For `C[C@@H](NC(=O)c1ccc2c(-c3ccc(C(F)(F)F)cc3)cccc2c1)c1nccn1C` [Compound 254, (R)—N-(1-(1-methyl-1H-imidazol-2-yl)ethyl)-5-(4-(trifluoromethyl)phenyl)-2-naphthamide], the IC50 was 0.1 to 1 µM. With `O=C(NCc1ccccn1)c1ccc2c(-c3ccc(C(F)(F)F)cc3)cccc2c1` [Compound 239, N-(pyridin-2-ylmethyl)-5-(4-(trifluoromethyl)phenyl)-2-naphthamide] the IC50 was < 0.1 µM. For `C[C@H](CCN(C)C)NC(=O)c1cnc2c(-c3ccc(C(F)(F)F)cc3)cccc2c1` [Compound 319, N-[(1R)-3-(Dimethylamino)-1-methyl-propyl]-8-[4-(trifluoromethyl)phenyl]quinoline-3-carboxamide], the IC50 was 0.1 to 1 µM. In the case of `C[C@H](CO)NC(=O)c1cnc2c(-c3ccc(C(F)(F)F)cc3)cccc2c1` [Compound 99, (R)—N-(1-hydroxypropan-2-yl)-8-(4-(trifluoromethyl)phenyl)quinoline-3-carboxamide], the IC50 is reported as < 0.1 µM. For `O=C(NCc1ccncc1)c1ccc2c(-c3ccc(C(F)(F)F)cc3)cccc2c1` [Compound 229, N-(pyridin-4-ylmethyl)-5-(4-(trifluoromethyl)phenyl)-2-naphthamide], the IC50 was < 0.1 µM. Work on `CC(C)(CO)NC(=O)c1ccc2c(-c3ccc(C(F)(F)F)cc3)cccc2c1` [Compound 263, N-(1-hydroxy-2-methylpropan-2-yl)-5-(4-(trifluoromethyl)phenyl)-2-naphthamide] yielded an IC50 of 0.1 to 1 µM. With `CC(C)(C)OC(=O)NCCOCCOCCNC(=O)c1ccc2c(-c3ccc(C(F)(F)F)cc3)cccc2c1` [Compound 49, Tert-Butyl (2-(2-(2-(5-(4-(trifluoromethyl)phenyl)-2-naphthamido)ethoxy)ethoxy)ethyl)carbamate] the IC50 was 0.1 to 1 µM. With `CC(C)NC(=O)c1cnc2c(-c3ccc(C(F)(F)F)cc3)cccc2c1` [Compound 4, N-isopropyl-8-(4-(trifluoromethyl)phenyl)quinoline-3-carboxamide] the IC50 was < 0.1 µM.
